Source: US20210290527A1, “Compositions and Methods for Treatment of Ocular Conditions” (EyeGate Pharmaceuticals, Inc., priority 2020, published 2021)
Read-outs that look alike come from different tables or passages of the source.

Key:
[1] = in water; cited from earlier work
[2] = Rheological testing, parallel plate rheometer: viscosity and shear-thinning; assay type: physicochemical
Procedure: Thiol-modified carboxymethyl HA (CMHA-S) was synthesized as described in Lawyer et al. and Wendling et al., with a thiol modification of 0.1, 0.2, 0.4, or 0.7 μmol thiol/mg. Hydrogels were created by dissolving CMHA-S in phosphate-buffered saline (PBS; pH 7.4). The CMHA-S was disulfide crosslinked under continuous mixing with the addition of sodium hypochlorite. Rheological testing was performed using a parallel plate format rheometer with a 25 mm-diameter stainless steel geometry. Samples (5-6 ml) of hydrogel were placed in a 35 mm Petri dish, and the geometry was lowered to a gap of 5 mm. To determine viscosity and shear-thinning, the shear rate was varied from 0.1 to 10 Hz. A decreasing viscosity as shear rate increases indicates shear-thinning behavior.
Viscosity was determined as described in Example 1.

[3] = Procedure: (§1) RI was measured with a refractometer and pH was measured with a pH meter.
[4] = pH measured with a pH meter; assay type: physicochemical
Procedure: as §1

[5] = Release of therapeutic from hydrogel in medi-dialysis chamber into PBS; assay type: physicochemical; details: therapeutic at 1 mg/ml, over 24 hours, dialysis chamber MWCO 50 kDa, UV spectroscopy
Procedure: FIGS. 3A, 3B, 3C, and 3D show the release of therapeutic from hydrogel (“OBG”; blue circles on the graphs) or PBS (green circles on the graphs) into PBS in a medi-dialysis chamber (MWCO, 50 kDa) over time.
The release was monitored over 24 hours and compared to release of the therapeutic from solution in PBS. For this assessment, a 0.5 ml sample of hydrogel plus therapeutic or PBS plus therapeutic was placed into a medi-dialysis chamber, and the chamber was placed in a beaker containing 100 ml of PBS. The remaining amount of therapeutic in the dialysis chamber was monitored using UV spectroscopy at various time points.

[6] = LE 2.5 mg/ml in CMHA-S hydrogel
[7] = drug incorporated at 1 mg/ml in CMHA-S hydrogel
[8] = PredA 1 mg/ml in CMHA-S hydrogel
[9] = PredA 5 mg/ml in CMHA-S hydrogel
[10] = PredA 10 mg/ml in CMHA-S hydrogel

## C[C@@H]1C[C@H]2[C@@H]3CCC4=CC(=O)C=C[C@]4(C)[C@@]3(F)[C@@H](O)C[C@]2(C)[C@@]1(O)C(=O)CO [Dexamethasone, dexamethasone]
[1]
  water solubility: less than 0.09 mg/ml

## CCOC(=O)O[C@]1(C(=O)OCCl)CC[C@H]2[C@@H]3CCC4=CC(=O)C=C[C@]4(C)[C@H]3[C@@H](O)C[C@@]21C [LE, loteprednol etabonate]
[2]; LE 1 mg/ml in CMHA-S hydrogel
  Viscosity at 2.5 Hz: 2.3 Pa · s
[2]; [6]
  Viscosity at 2.5 Hz: 2.7 Pa · s
[2]; LE 5 mg/ml in CMHA-S hydrogel
  Viscosity at 2.5 Hz: 3.3 Pa · s
[3]; LE 1 mg/ml in CMHA-S hydrogel
  RI: 1.3355
[3]; [6]
  RI: 1.3354
[3]; LE 5 mg/ml in CMHA-S hydrogel
  RI: 1.3353
[4]; LE 1 mg/ml in CMHA-S hydrogel
  pH: 7.11
[4]; [6]
  pH: 7.24
[4]; LE 5 mg/ml in CMHA-S hydrogel
  pH: 7.55
[5]
  release from the hydrogel compared to release from PBS: reduced compared to its release from PBS
[1]
  water solubility: less than 0.001 mg/ml

## CN(C)CC/C=C1/c2ccccc2COc2ccc(CC(=O)O)cc21 [Olopatadine, olopatadine]
[2]; [7]
  Viscosity at 2.5 Hz: 1.1 Pa · s
[3]; [7]
  RI: 1.3353
[4]; [7]
  pH: 7.3
[1]
  water solubility: about 0.03 mg/ml

## CC(=O)OCC(=O)[C@@]1(O)CC[C@H]2[C@@H]3CCC4=CC(=O)C=C[C@]4(C)[C@H]3[C@@H](O)C[C@@]21C [PredA, prednisolone acetate]
[2]; [8]
  Viscosity at 2.5 Hz: 2.0 Pa · s
[2]; [9]
  Viscosity at 2.5 Hz: 2.7 Pa · s
[2]; [10]
  Viscosity at 2.5 Hz: 3.0 Pa · s
[4]; [8]
  pH: 7.09
[4]; [9]
  pH: 7.13
[4]; [10]
  pH: 7.17
